Measured values taken from article PMC10782483, “Development of the High-Affinity Carborane-Based Cannabinoid Receptor Type 2 PET Ligand [^18F]LUZ5-d8” (Journal of Medicinal Chemistry, 2023).
Values joined by “and” are separate entries in the source; they are usually repeats but may differ in a detail not shown here. Equal values may be shown once. “Also recorded” adds a separate entry of the source. Read-outs that look alike come from different tables or passages of the source.

How the values were obtained:
human CB2R = target: T1, human CB2R (Homo sapiens, UniProt P34972); experiment: competitive binding affinity assay, membrane homogenates of hCB2R CHO cells, radioligand [3H]WIN55212-2; details: hCB2R CHO membranes
T1 construct: expressed in transfected cells; host or cells: CHO cells (membrane homogenates)
Procedure: Target compounds 9–11, 15, LUZ5, and 17 were evaluated in a competitive binding affinity assay using hCB2R Chinese hamster ovary (CHO) cells and the agonistic high-affinity CB2R radioligand [^3H]WIN55212-2 (Figure S96).
(§1) The in vitro binding affinity assays were performed with membrane homogenates from Chinese hamster ovary (CHO) cells stably transfected with the human CB2R according to a previously published protocol.[95] The screening for CB1R binding affinity determination was performed with membrane homogenates from CHO cells stably transfected with the human CB1R as described previously.[96]

[1] = chemical stability tests by 1H and 11B{1H} NMR spectroscopy in aqueous DMSO-d6; assay type: physicochemical; details: for chemical stability in aqueous DMSO-d6 (NMR), in words / stability in aqeous DMSO-d6 (1H, 11B{1H}-NMR) / stability versus binding affinity assay time frame: aqueous DMSO-d6; for stability versus binding affinity assay time frame: assay time 90 min
Procedure: A high chemical and metabolic stability of the compounds is required for biological evaluation and application in vivo. The method of choice for evaluating the chemical stability was ^1H and ^11B{^1H} NMR spectroscopy, with the latter being particularly suitable for recognizing deboronation. Since the in vitro binding assays are performed in aqueous media, the stability tests should be performed under similar conditions. However, due to the high hydrophobicity of the carborane moieties, target compounds 9–11 and 15–17 were not soluble in aqueous solution without the addition of dimethyl sulfoxide (DMSO). Since a maximum of 1% DMSO can be used in the in vitro binding assay, stability measurements were performed in aqueous DMSO-d6 to see especially if deboronation occurs in the presence of water. Approximately 10 mg of each compound (9–11 and 15–17) was dissolved in the deuterated NMR solvent and monitored via NMR spectroscopy in time intervals of a few minutes (after the addition of the solvent to the respective solid compound) to at least 23 days for the o- (9 and 15) and m-carborane derivatives (10 and LUZ5) and beyond one year for the p-carborane analogues (11 and 17) (Figures S68–S79).
Stability tests were performed with ^1H and ^11B{^1H} NMR spectroscopy. Approximately 10 mg of each compound was dissolved in aqueous DMSO-d6 and measured directly thereafter and at increasing time intervals from a few minutes to a couple of days or beyond a year.
The stability of LUZ5 was additionally investigated under the conditions described above, but in the presence of larger amounts of H2O or D2O. For this, LUZ5 was dissolved in DMSO-d6 (0.5 mL) and either H2O (0.1 mL) or D2O (0.1 mL) was added.

CB2R = details: reference compound; read-out: KiCB2R; cited from earlier work
[2] = cited from earlier work
[3] = rat, in vivo; cited from earlier work
[4] = test system: mouse liver microsomes (MLMs); experiment: in vitro metabolism with mouse liver microsomes and NADPH, HPLC-UV-MS; assay type: in vitro ADME; details: NADPH, similar conditions
Procedure: Each of the compounds was incubated with mouse liver microsomes (MLMs) in phosphate-buffered saline (PBS) in the presence of nicotinamide adenine dinucleotide phosphate (NADPH) for 30 and 60 min at 37 °C, according to a literature protocol.[81],[82] After the addition of cold acetonitrile, the obtained supernatants were analyzed by HPLC-UV-MS (exemplified chromatogram and spectrum in Figures S91 and S92). […] In addition, negative control samples without NADPH or without NADPH and MLM were prepared and analyzed for each target compound.
For in vitro evaluation of metabolites, the following instruments were used: BioShake iQ (QUANTIFOIL Instruments, Jena, Germany), Centrifuge 5424 (Eppendorf, Hamburg, Germany), UltiMate 3000 UHPLC System (Thermo Scientific, Germering, Germany) including a DAD detector (DAD-3000RS) coupled to an MSQ Plus single quadrupole mass spectrometer (Thermo Scientific, Austin, TX). […] In brief, each of the test compounds (dissolved in DMSO, final concentration of 10 μM, final DMSO percentage of 1%) and MLMs (final protein concentration of 1 mg/mL) in PBS (pH 7.4) were preincubated in PBS (pH 7.4) for 5 min at 37 °C. Similarly preincubated NADPH (final concentration of 2 mM) was added to start the incubation. […] The supernatants were stored at 4 °C until they were measured by HPLC-UV-MS. […]

human CB1R = target: T2, human CB1R (Homo sapiens, UniProt P21554); experiment: CB1R binding affinity screening, membrane homogenates of CHO cells with human CB1R, radioligand [3H]SR141716A; details: human CB1R CHO membranes
T2 construct: expressed in transfected cells; host or cells: CHO cells (membrane homogenates)
Procedure: as §1

[5] = individual values behind the mean, read-out: KiCB2R individual values

T1 sequence (P34972 whole entry): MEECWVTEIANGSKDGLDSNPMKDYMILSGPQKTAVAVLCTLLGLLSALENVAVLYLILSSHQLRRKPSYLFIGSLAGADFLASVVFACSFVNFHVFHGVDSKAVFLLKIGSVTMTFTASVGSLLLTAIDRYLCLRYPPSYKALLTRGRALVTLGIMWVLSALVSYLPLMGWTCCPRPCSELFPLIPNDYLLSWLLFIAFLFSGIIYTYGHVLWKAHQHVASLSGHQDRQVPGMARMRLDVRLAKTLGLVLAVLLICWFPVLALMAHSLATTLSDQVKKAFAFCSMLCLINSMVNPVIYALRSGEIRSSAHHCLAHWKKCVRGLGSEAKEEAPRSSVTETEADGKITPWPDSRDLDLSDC
T2 sequence (P21554 whole entry): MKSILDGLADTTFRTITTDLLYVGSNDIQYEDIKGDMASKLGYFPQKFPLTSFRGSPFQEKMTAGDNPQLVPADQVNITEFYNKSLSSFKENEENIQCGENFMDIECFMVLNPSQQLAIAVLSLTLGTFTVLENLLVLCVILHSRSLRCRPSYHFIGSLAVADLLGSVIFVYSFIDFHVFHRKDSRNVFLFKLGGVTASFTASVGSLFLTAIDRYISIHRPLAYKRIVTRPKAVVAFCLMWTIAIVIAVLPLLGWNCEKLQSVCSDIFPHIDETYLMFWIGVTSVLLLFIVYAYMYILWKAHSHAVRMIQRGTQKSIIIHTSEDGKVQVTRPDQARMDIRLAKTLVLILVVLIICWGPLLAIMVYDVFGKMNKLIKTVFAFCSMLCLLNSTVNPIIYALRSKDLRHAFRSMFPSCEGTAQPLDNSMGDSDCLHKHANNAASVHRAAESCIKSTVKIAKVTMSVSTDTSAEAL

Row | Molecule | Ki (human CB2R; mean, read-out: KiCB2R mean) [nM] | chemical stability in aqueous DMSO-d6 (NMR), in words [1] | stability in aqeous DMSO-d6 (1H, 11B{1H}-NMR) [1] | stability versus binding affinity assay time frame [1] | Ki (human CB2R; [5]) | further results
1 | 1-(4-Fluorobutyl)-2-oxo-N-(1,2-dicarba-closo-dodecaboranyl)-1,2-dihydro-1,8-naphthyridine-3-carboxamide [Compound 9] | 40.8 | additional signals were visible already after 2 h | < 0.083 days | too low |  | 
2 | 1-(4-Fluorobutyl)-2-oxo-N-(1,7-dicarba-closo-dodecaboranyl)-1,2-dihydro-1,8-naphthyridine-3-carboxamide [Compound 10] | 35.4 |  | < 8 days | stability beyond the binding affinity assay time frame | 43.8 nM and 26.9 nM | 
3 | 1-(4-Fluorobutyl)-2-oxo-N-(1,7-dicarba-closo-dodecaboranyl)-1,2-dihydro-1,8-naphthyridine-3-carboxamide [Compound 11] | 3.9 | stable for more than one year; also recorded: good chemical stability | ? 491 d | stability beyond the binding affinity assay time frame | 2.77 nM and 5.01 nM | 
4 | O=C(NC12CC3CC(CC(C3)C1)C2)c1cc2cccnc2n(CCCCF)c1=O [LU13] |  |  |  |  |  | Ki (CB2R): 0.6 nM
5 | Cc1s/c(=N\C(=O)C2C(C)(C)C2(C)C)n(CCCC[18F])c1C [[^18F]3] |  |  |  |  |  | intact radioligand in brain ([2]; brain samples): 36%; intact radiotracer in plasma ([2]; mouse, in vivo): 7%
6 | Cc1s/c(=N\C(=O)C2C(C)(C)C2(C)C)n(CCOCC[18F])c1C [[^18F]4] |  |  |  |  |  | intact radiotracer in plasma [3]: 25%
7 | C[C@]12CC[C@H]3[C@@H](CCC4=CC(=O)CC[C@@]43C)[C@@H]1CC[C@@H]2O [testosterone] |  |  |  |  |  | conversion of positive control [4]: complete conversion
8 | (Z)-N-[3-(4-Fluorobutyl)-4,5-dimethylthiazole-2(3H)-ylidene]-(1,2-dicarba-closo-dodecaboranyl)-carboxamide [Compound 15] | 3.3 | good chemical stability | < 3 days | stability beyond the binding affinity assay time frame | 3.28 nM and 3.26 nM | 
9 | (Z)-N-[3-(4-Fluorobutyl)-4,5-dimethylthiazole-2(3H)-ylidene]-(1,7-dicarba-closo-dodecaboranyl)-carboxamide [LUZ5] | 0.8 |  | ? 23 d | stability beyond the binding affinity assay time frame |  | Ki (human CB1R): > 10000 nM; stable in DMSO-d6 with increased amounts of D2O ([1]; D2O in DMSO-d6 1:5 (v/v), 11B{1H} NMR): at least 8 days; stable in DMSO-d6 with increased amounts of H2O ([1]; H2O in DMSO-d6 1:5 (v/v), 11B{1H} NMR): at least 19 days
10 | (Z)-N-[3-(4-Fluorobutyl)-4,5-dimethylthiazole-2(3H)-ylidene]-(1,12-dicarba-closo-dodecaboranyl)-carboxamide [Compound 17] | 1.3 | stable for more than one year; also recorded: good chemical stability | ? 491 d | stability beyond the binding affinity assay time frame | 1.36 nM and 1.17 nM | 
